Measurements published in patent publication US9993529B2, “Stable formulations of a hyaluronan-degrading enzyme” (Halozyme, Inc., priority 2011, dated 2018).
Like-named read-outs stand apart in the source and are kept apart here. Residues, ends and D or L forms follow the SMILES beside them.

Experiments:
rHuPH20 = biological target: T1, rHuPH20 (Homo sapiens, UniProt P38567); settings: for Effect on rHuPH20 enzymatic activity: stabilizer screen in rHuPH20/insulin formulation ([…] m-cresol, 0.2% phenol, pH 7.3±0.1), 30° C. about one week, semi-quantitative in comparison with NaCl; for rHuPH20 activity: 48 hours
T1 sequence (P38567 36-482): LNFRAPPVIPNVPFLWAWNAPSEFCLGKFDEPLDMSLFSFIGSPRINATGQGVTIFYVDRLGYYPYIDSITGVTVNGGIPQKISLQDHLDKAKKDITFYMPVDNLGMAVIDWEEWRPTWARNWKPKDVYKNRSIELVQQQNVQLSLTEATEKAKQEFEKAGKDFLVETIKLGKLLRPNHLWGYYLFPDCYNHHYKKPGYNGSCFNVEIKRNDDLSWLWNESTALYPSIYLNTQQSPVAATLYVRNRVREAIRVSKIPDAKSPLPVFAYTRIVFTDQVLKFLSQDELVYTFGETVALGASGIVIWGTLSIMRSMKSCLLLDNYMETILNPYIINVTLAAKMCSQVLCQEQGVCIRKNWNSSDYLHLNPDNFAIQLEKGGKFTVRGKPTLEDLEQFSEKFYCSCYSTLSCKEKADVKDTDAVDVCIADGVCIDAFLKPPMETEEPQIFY
Procedure: The activity of a hyaluronan degrading enzyme can be assessed using methods well known in the art. […] A Hyaluronidase Reference Standard (USP) or National Formulary (NF) Standard Hyaluronidase solution can be used in an assay to ascertain the activity, in units, of any hyaluronidase. In one example, activity is measured using a microturbidity assay. […] The turbidity of the resulting sample is measured at 640 nm after an additional development period.

[1] = RP-HPLC insulin apparent solubility / percent recovery (content)
Procedure: Apparent solubility was measured as the percent insulin recovery as compared to the initial formulations/conditions.
Samples were prepared by withdrawing 100 μL from each vial at every time point and centrifuging prior to loading. Samples were stored in an autosampler at 4° C. prior to use, and were considered stable for 3 days after preparation. All samples were tested in duplicate.
For insulin, 20 μL was injected for each HPLC run.
To determine the apparent solubility, the peak area of insulin/insulin analog main peak and desamido peak were integrated and combined together to calculate the percentage relative to the standards. […] The data were processed using Design-Expert® 7.0 (StatEase) and the “historical data” feature. Insulin percent purity was expressed as the percent of main insulin versus all insulin species.

SEC, % main rHuPH20 peak = assay type: physicochemical
Procedure: SEC was performed using the following conditions: 1× Phosphate Buffered Saline (PBS), a Toso BioScience G2000 SWXL column, and a flow rate set at 1 mL/min. Data were collected as described above and means were reported and entered into the design table following the sample sequence provided by the DOE software.

[2] = RP-HPLC rHuPH20 oxidation peaks (ox-1, ox-2); assay type: physicochemical; settings: 0.02% surfactant, 30° C., 72 hours
Excerpt: The stability of hyaluronan degrading enzymes in a composition, such as in the co-formulations provided herein, also can be assessed using other methods and assays known in the art. […] Percent recovery is the relative percentage of the hyaluronidase in the co-formulation over time and at various storage conditions, as compared to a reference sample. […] An increase in particle size and a decrease in the melting temperature indicates denaturation and subsequent aggregation of the hyaluronidase. […] Other methods known to one of skill in the art that can be used to determine the stability of the hyaluronidase in the co-formulations provided herein, include polyacrylamide gel electrophoresis (PAGE), immunoblotting, nuclear magnetic resonance (NMR) spectroscopy, mass spectrometry, circular dichroism (CD) and dye-based fluorescence assays.
The formulations varied in the surfactant and surfactant concentration and the buffer (either histidine or phosphate).
Methionine oxidation can be prevented by addition of free methionine as a scavenger to react with potential oxidative compounds.

[3] = in vivo; cited from earlier work
[4] = Temperature effect on pH and NaOH titration of lysyl lysine buffer; assay type: physicochemical; settings: Ex27 rHuPH20/insulin glulisine formulations
[5] = stabilizer screen in rHuPH20/insulin formulation, RP-HPLC on samples stored at 5° C., semi-quantitative in comparison with NaCl
[6] = 35° C., 1 day, concentrations of Table 21
[7] = 4° C., concentrations of Table 22

O=C([O-])c1ccccc1.[Na+] [Sodium Benzoate]
Effect on rHuPH20 enzymatic activity (rHuPH20): No effect

CSCC[C@H](N)C(=O)O [methionine]
Effect on rHuPH20 enzymatic activity (rHuPH20): No effect
Effect on insulin solubility [1, 5]: No effect

NC(=O)CC[C@H](N)C(=O)O [Glutamine]
Effect on rHuPH20 enzymatic activity (rHuPH20): No effect
Effect on insulin solubility [1, 5]: No effect

Benzalkonium Chloride
% Main rHuPH20 peak by non-denaturing SEC (SEC, % main rHuPH20 peak; [6]): <LOD

Polysorbate 20
% of Oxidation Peak 1 of rHuPH20 ([2]; Methionine 0 mM): 4.01%
% of Oxidation Peak 1 of rHuPH20 ([2]; Methionine 2 mM): 3.43%
% of Oxidation Peak 1 of rHuPH20 ([2]; Methionine 10 mM): 3.37%
% of Oxidation Peak 1 of rHuPH20 ([2]; Methionine 50 mM): 3.38%

glargine: long-lasting insulin analog
Duration [3]: 28 h

OC[C@@H](O)[C@@H](O)[C@H](O)[C@H](O)CO [Mannitol]
Effect on rHuPH20 enzymatic activity (rHuPH20): No effect

detemir: long-lasting insulin analog
Duration [3]: 28 h

Polysorbate 80
% of Oxidation Peak 1 of rHuPH20 ([2]; Methionine 0 mM): 4.01%
% of Oxidation Peak 1 of rHuPH20 ([2]; Methionine 2 mM): 3.50%
% of Oxidation Peak 1 of rHuPH20 ([2]; Methionine 10 mM): 3.44%
% of Oxidation Peak 1 of rHuPH20 ([2]; Methionine 50 mM): 3.34%

OCCCCCl [4-Chloro-1-butanol]
% Main rHuPH20 peak by non-denaturing SEC (SEC, % main rHuPH20 peak; [6]): <LOD

C[N+](C)(C)CC(=O)O [Betaine]
Effect on rHuPH20 enzymatic activity (rHuPH20): No effect
Effect on insulin solubility [1, 5]: No effect

NCCCC[C@H](N)C(=O)O [Lysine]
Effect on rHuPH20 enzymatic activity (rHuPH20): No effect
Effect on insulin solubility [1, 5]: No effect

N[C@@H](Cc1ccccc1)C(=O)O [L-Phenylalanine]
% Main rHuPH20 peak by non-denaturing SEC (SEC, % main rHuPH20 peak; [7]): 100.00%

O=C(O)CCCc1ccccc1 [Phenyl butyric acid]
Effect on rHuPH20 enzymatic activity (rHuPH20): No effect

OC[C@H]1O[C@H](O[C@H]2O[C@H](CO)[C@@H](O)[C@H](O)[C@H]2O)[C@H](O)[C@@H](O)[C@@H]1O [Trehalose]
Effect on rHuPH20 enzymatic activity (rHuPH20): No effect

OC[C@@H](O)[C@@H](O)[C@H](O)[C@@H](O)CO [sorbitol]
Effect on rHuPH20 enzymatic activity (rHuPH20): No effect

Cl.Cl.NCCCCC(N)C(=O)NC(CCCCN)C(=O)O (stereo not drawn) [Lys-Lys, H-Lys-Lys-OH HCl]
Lys-Lys concentration sufficient to improve rHuPH20 stability (rHuPH20; Ex24, 40° C.): 10 mM
Effect on rHuPH20 enzymatic activity (rHuPH20): Strong stabilizer
stabilization of rHuPH20 compared with NaCl (rHuPH20; stabilizer screen, […] m-cresol, 0.2% phenol, 30° C., about one week): stabilized rHuPH20 more than NaCl
Effect on insulin solubility [1, 5]: Reduced solubility
Effect on insulin solubility ([1]; stabilizer screen, 5° C.): caused severe precipitation of insulin
temperature effect (dpH/dT) [4]: −0.033 U/° C.

OC[C@H]1O[C@@](CO)(O[C@H]2O[C@H](CO)[C@@H](O)[C@H](O)[C@H]2O)[C@@H](O)[C@@H]1O [Sucrose]
Effect on rHuPH20 enzymatic activity (rHuPH20): No effect

NC(CO)(CO)CO [Tris (100 mM)]
Effect on rHuPH20 enzymatic activity (rHuPH20): No effect
Effect on insulin solubility [1]: No effect

NCC(=O)NCC(=O)O [Gly-Gly] (H-Gly-Gly-OH)
Effect on rHuPH20 enzymatic activity (rHuPH20): No effect

O[C@H]1[C@H](O)[C@@H](O)[C@H](O)[C@@H](O)[C@H]1O [Inositol]
Effect on rHuPH20 enzymatic activity (rHuPH20): No effect

C[N+](C)(C)[O-] [Trimethylamine oxide (TMAO)]
Effect on rHuPH20 enzymatic activity (rHuPH20): No effect
Effect on insulin solubility [1, 5]: No effect

COC(=O)c1ccc(O)cc1 [methylparaben]
rHuPH20 activity (rHuPH20; 4° C.): 10,380
rHuPH20 activity (rHuPH20; 35° C.): 12,660
Enzymatic Activity of rHuPH20 (rHuPH20; preservative 0.05 %, 1 Month, 25° C., insulin/rHuPH20): 2061 U/mL
Enzymatic Activity of rHuPH20 (rHuPH20; preservative 0.05 %, 1 Week, 35° C.): 1058^2 U/mL
Enzymatic Activity of rHuPH20 (rHuPH20; preservative 0.05 %, 2 Weeks, 35° C.): 1018^2 U/mL
Enzymatic Activity of rHuPH20 (rHuPH20; preservative 0.1 %, 1 Month, 25° C.): 1919 U/mL
Enzymatic Activity of rHuPH20 (rHuPH20; preservative 0.1 %, 1 Week, 35° C.): 2085 U/mL
Enzymatic Activity of rHuPH20 (rHuPH20; preservative 0.1 %, 2 Weeks, 35° C.): 1968 U/mL
Enzymatic Activity of rHuPH20 (rHuPH20; preservative 0.2 %, 1 Month, 25° C.): 2196 U/mL
Enzymatic Activity of rHuPH20 (rHuPH20; preservative 0.2 %, 1 Week, 35° C.): 1927 U/mL
Enzymatic Activity of rHuPH20 (rHuPH20; preservative 0.2 %, 2 Weeks, 35° C.): 1590 U/mL
Enzymatic Activity of rHuPH20 (rHuPH20; preservative 0.3 %, 1 Month, 25° C.): 2049 U/mL
Enzymatic Activity of rHuPH20 (rHuPH20; preservative 0.3 %, 2 Weeks, 35° C.): 447 U/mL
% Main rHuPH20 peak by non-denaturing SEC (SEC, % main rHuPH20 peak; [7]): 100.00%

OCC(O)CO [glycerol]
Effect on rHuPH20 enzymatic activity (rHuPH20): No effect
Effect on insulin solubility [1]: No/slight effect;

Cc1cccc(O)c1 [m-cresol]
rHuPH20 activity (rHuPH20; 35° C.): <LOQ
% Main rHuPH20 peak by non-denaturing SEC (SEC, % main rHuPH20 peak; [7]): 100.00%
